Assay results published in patent US10329309B2, “3-(3H-imidazo[4,5-B]pyridin-2-yl)-1H-pyrazolo[4,3-B]pyridines and therapeutic uses thereof” (Samumed, LLC, priority 2015, dated 2019).

Tests used:
Format in all cases: cell-based
[1] = test system: primary human fibroblasts derived from IPF patients (LL29 cells), α-smooth muscle actin (αSMA); assay: Inhibition of the fibrotic process: TGF-β1-treated primary human fibroblasts from IPF patients, αSMA staining; settings: Fibroblast, 96 h, 4 days; for EC50: LL29 fibroblasts from IPF patients, TGF-β1 20 ng/mL, inhibition of fibrotic process; for inhibition at 10 µM: LL29 fibroblasts, TGF-β1 treated, read-out: percent inhibition at 10 μM (given for EC50 of >10 μM)
Outline: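 Read-out: fraction of αSMA-positive cells by high-content imaging, SYTOX-stained dead cells excluded, normalized to TGF-β1/DMSO wells. Cells got compound (10 μM–[…], 11 points) plus TGF-β1 20 ng/mL for 4 days. EC50 from triplicate curves; above 10 μM, % inhibition at 10 μM given.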

[2] = test system: Wnt activity (Sp5-Luc reporter, SW480 colon carcinoma cells); assay: Screening assay for Wnt activity: Sp5-Luc reporter gene assay in SW480 cells; settings: Homo sapiens; for inhibition at 10 µM: 10 μM compound, read-out: percent inhibition at 10 μM (given for EC50 of >10 μM); for EC50: overnight incubation, 10-point dose-response from 10 μM
Outline: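 Luminescence (BrightGlo) read after overnight 37 °C exposure of Sp5-Luc SW480 reporter cells, 4,000/well in 1% FBS, to compound dosed 1:3 over 10 points from 10 μM with 0.1% DMSO. Values normalized to DMSO-only cells, fitted with variable-slope four-parameter model; where EC50 exceeds 10 μM, % inhibition at 10 μM reported.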

[3] = test system: SW480 colon cancer cells; assay: Cell viability assay (CellTiter-Blue), four days; settings: Homo sapiens, 96 h; for EC50: CellTiter-Blue cell viability; for inhibition at 10 µM: read-out: percent inhibition at 10 μM (given for EC50 of >10 μM)
Outline: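 4-day exposure, 37 °C/5% CO2; ~2×10^3 SW480 cells/well; 8-pt 1:3 curve, 10–0.0045 μM, duplicates vs DMSO controls. Resazurin→resorufin fluorescence readout, ~3 h. EC50 by nonlinear fit; if >10 μM, % inhibition at 10 μM reported.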

Row | Compound | EC50 [2] | EC50 [3] | EC50 [1] | inhibition at 10 µM [2] | inhibition at 10 µM [3] | inhibition at 10 µM [1]
1 | c1cc(-c2ccoc2)c2nc(-c3n[nH]c4ccc(-c5cncc(OCCN6CCCC6)c5)nc34)[nH]c2n1 [Compound 690, 3-(7-(Furan-3-yl)-3H-imidazo[4,5-b]pyridin-2-yl)-5-(5-(2-(pyrrolidin-1-yl)ethoxy)pyridin-3-yl)-1H-pyrazolo[4,3-b]pyridine] | > 10 µM | > 10 µM | 4.75 µM | 37.6% | 26.6% | 
2 | c1cc(-c2ccnc3[nH]c(-c4n[nH]c5ccc(-c6cncc(OC7CCNCC7)c6)nc45)nc23)ccn1 [Compound 576, 5-(5-(Piperidin-4-yloxy)pyridin-3-yl)-3-(7-(pyridin-4-yl)-3H-imidazo[4,5-b]pyridin-2-yl)-1H-pyrazolo[4,3-b]pyridine] | > 10 µM | > 10 µM | 4.07 µM | 8.9% | 1.7% | 
3 | Cn1cc(-c2ccc3[nH]nc(-c4nc5c(N6CCCCC6)ccnc5[nH]4)c3n2)c(CO)n1 [Compound 1134, (1-Methyl-4-(3-(7-(piperidin-1-yl)-3H-imidazo[4,5-b]pyridin-2-yl)-1H-pyrazolo[4,3-b]pyridin-5-yl)-1H-pyrazol-3-yl)methanol] | > 10 µM | > 10 µM | 0.149 µM | 4% | 18.1% | 
4 | Oc1cncc(-c2ccc3[nH]nc(-c4nc5cccnc5[nH]4)c3n2)c1 [Compound 661, 5-(3-(3H-Imidazo[4,5-b]pyridin-2-yl)-1H-pyrazolo[4,3-b]pyridin-5-yl) pyridin-3-ol] | > 10 µM | > 10 µM | > 10 µM | 7.2% | 13% | 6.2%
5 | COc1cncc(-c2ccc3[nH]nc(-c4nc5c(N6CCCCC6)ccnc5[nH]4)c3n2)c1 [Compound 612, 5-(5-Methoxypyridin-3-yl)-3-(7-(piperidin-1-yl)-3H-imidazo[4,5-b]pyridin-2-yl)-1H-pyrazolo[4,3-b]pyridine] | > 10 µM | > 10 µM | > 10 µM | 5.8% | 6.1% | 30.3%

Second part, led by results:

Row | EC50 [2] | EC50 [3] | Compound | EC50 [1] | inhibition at 10 µM [2] | inhibition at 10 µM [3] | inhibition at 10 µM [1]
6 | > 10 µM | 0.171 µM | Fc1ccc(-c2ccnc3[nH]c(-c4n[nH]c5ccc(-c6cncnc6)nc45)nc23)cc1 [Compound 55, 3-(7-(4-Fluorophenyl)-3H-imidazo[4,5-b]pyridin-2-yl)-5-(pyrimidin-5-yl)-1H-pyrazolo[4,3-b]pyridine] | 0.063 µM | 20.2% |  | 
7 | > 10 µM | > 10 µM | CC(C)C(=O)Nc1cncc(-c2ccc3[nH]nc(-c4nc5c(-c6ccccc6F)ccnc5[nH]4)c3n2)c1 [Compound 65, N-(5-(3-(7-(2-fluorophenyl)-3H-imidazo[4,5-b]pyridin-2-yl)-1H-pyrazolo [4,3-b]pyridin-5-yl)pyridin-3-yl)isobutyramide] | > 10 µM | 14.3% | 7.5% | 0%
8 | > 10 µM | > 10 µM | CCCC(=O)Nc1cncc(-c2ccc3[nH]nc(-c4nc5c(-c6ccncc6)ccnc5[nH]4)c3n2)c1 [Compound 129, N-(5-(3-(7-(pyridin-4-yl)-3H-imidazo[4,5-b]pyridin-2-yl)-1H-pyrazolo[4,3-b]pyridin-5-yl)pyridin-3-yl)butyramide] | > 10 µM | 4.3% | 5.7% | 0%
9 | > 10 µM | > 10 µM | CS(=O)(=O)NCc1cc(F)cc(-c2ccnc3[nH]c(-c4n[nH]c5ccc(-c6cncc(NC(=O)c7ccccc7)c6)nc45)nc23)c1 [Compound 487, N-(5-(3-(7-(3-Fluoro-5-(methylsulfonamidomethyl)phenyl)-3H-imidazo[4,5-b]pyridin-2-yl)-1H-pyrazolo[4,3-b]pyridin-5-yl)pyridin-3-yl)benzamide] | > 10 µM | 7.1% | 0.6% | 0%
